Key:
[1] = biological target: recombinant SARS-CoV-2 Main protease (Mpro) (Severe acute respiratory syndrome coronavirus 2 (2019-nCoV) (SARS-CoV-2), UniProt P0DTD1); assay: Cov Mpro Biochemical IC50 Assay; conditions: recombinant SARS-CoV-2 Mpro, fluorogenic peptide substrate; read-out: MPro IC50
SARS-CoV-2-NLuc = assay: microbe, parasite or virus in culture; format: cell-based, SARS Coronavirus 2; conditions: Severe acute respiratory syndrome coronavirus, 48 h, read-out: MPro EC50

Row | SMILES | IC50 [1] [nM] | EC50 (SARS-CoV-2-NLuc) [nM]
1 | O=c1[nH]c2cc(-c3c(Cl)cccc3-c3cc4n(n3)CCC4)ccc2c(=O)n1-c1cncc2ccccc12 [Example 246] | 21 | 18.4
2 | Cn1cc2cc(-c3cccc(Cl)c3-c3ccc4c(=O)n(-c5cncc6ccccc56)c(=O)[nH]c4c3)ccc2n1 [Example 247] | 63 | 30.4
3 | Cn1cc2ccc(-c3cccc(Cl)c3-c3ccc4c(=O)n(-c5cncc6ccccc56)c(=O)[nH]c4c3)cc2n1 [Example 248] | 87.2 | 40.1
4 | CCCOc1ccc(Cl)c(-c2ccc3c(=O)n(-c4cncc5ccccc45)c(=O)[nH]c3c2)c1 [Example 249] | 269 | 110
5 | COc1cc(-c2ccc3c(=O)n(-c4cncc5ccccc45)c(=O)[nH]c3c2)c(Cl)cc1C [Example 250] | 1210 | 460
6 | COCCOc1ccc(Cl)c(-c2ccc3c(=O)n(-c4cncc5ccccc45)c(=O)[nH]c3c2)c1 [Example 251] | 68.2 | 150
7 | Cc1ccc(Cl)c(-c2ccc3c(=O)n(-c4cncc5ccccc45)c(=O)[nH]c3c2)c1 [Example 252] | 151 | 321
8 | COc1cc(-c2ccc3c(=O)n(-c4cncc5ccccc45)c(=O)[nH]c3c2)c(Cl)cn1 [Example 253] | 459 | 1210
9 | COc1ccc(F)c(-c2ccc3c(=O)n(-c4cncc5ccccc45)c(=O)[nH]c3c2)c1 [Example 254] | 107 | 277
10 | COc1cc(Cl)c(-c2ccc3c(=O)n(-c4cncc5ccccc45)c(=O)[nH]c3c2)cc1OC [Example 255] | 307 | 332
11 | CC(C)COc1ccc(Cl)c(-c2ccc3c(=O)n(-c4cncc5ccccc45)c(=O)[nH]c3c2)c1 [Example 256] | 3990 | 699
12 | COc1cnc(Cl)c(-c2ccc3c(=O)n(-c4cncc5ccccc45)c(=O)[nH]c3c2)c1 [Example 257] | 500 | 1150
13 | Cc1cn(C)nc1-c1cccc(Cl)c1-c1ccc2c(=O)n(-c3cncc4ccccc34)c(=O)[nH]c2c1 [Example 258] | 61.3 | 75.9
14 | Cc1nocc1-c1cccc(Cl)c1-c1ccc2c(=O)n(-c3cncc4ccccc34)c(=O)[nH]c2c1 [Example 259] | 189 | 113
15 | NC(=O)c1cc(-c2cccc(Cl)c2-c2ccc3c(=O)n(-c4cncc5ccccc45)c(=O)[nH]c3c2)ccc1F [Example 260] | 15.3 | 10.3
16 | Cc1n[nH]cc1-c1cccc(Cl)c1-c1ccc2c(=O)n(-c3cncc4ccccc34)c(=O)[nH]c2c1 [Example 261] | 79 | 98.6
17 | Cn1cc(-c2cccc(Cl)c2-c2ccc3c(=O)n(-c4cncc5ccccc45)c(=O)[nH]c3c2)c(C2CC2)n1 [Example 262] | 6.12 | < 4.41
18 | Cn1nc(-c2cccc(Cl)c2-c2ccc3c(=O)n(-c4cncc5ccccc45)c(=O)[nH]c3c2)c2ccccc21 [Example 263] | 88.5 | 38.1
19 | NC(=O)c1cc(-c2cccc(Cl)c2-c2ccc3c(=O)n(-c4cncc5ccccc45)c(=O)[nH]c3c2)ccc1Cl [Example 264] | 11.1 | 30.2
20 | Cn1cc(-c2cccc(Cl)c2-c2ccc3c(=O)n(-c4cncc5ccccc45)c(=O)[nH]c3c2)c(C(F)(F)F)n1 [Example 265] | 25.9 | 17.4
21 | Cc1nn(C2CCN(C(=O)OC(C)(C)C)CC2)cc1-c1cccc(Cl)c1-c1ccc2c(=O)n(-c3cncc4ccccc34)c(=O)[nH]c2c1 [Example 266, tert-butyl 4-[4-[3-chloro-2-[3-(4-isoquinolyl)-2,4-dioxo-1H-quinazolin-7-yl]phenyl]-3-methyl-pyrazol-1-yl]piperidine-1-carboxylate] | 36.4 | 95.1
22 | Cn1cc(-c2cccc(Cl)c2-c2ccc3c(=O)n(-c4cncc5ccccc45)c(=O)[nH]c3c2)c(C#N)n1 [Example 267] | 24.1 | 35.5
23 | Cc1c(-c2cccc(Cl)c2-c2ccc3c(=O)n(-c4cncc5ccccc45)c(=O)[nH]c3c2)cnn1C1CCN(C(=O)OC(C)(C)C)CC1 [Example 268] | 131 | 43.1
24 | CS(=O)(=O)c1cccc(-c2cccc(Cl)c2-c2ccc3c(=O)n(-c4cncc5ccccc45)c(=O)[nH]c3c2)c1 [Example 269] | 10.7 | < 5.29
25 | NS(=O)(=O)c1cccc(-c2cccc(Cl)c2-c2ccc3c(=O)n(-c4cncc5ccccc45)c(=O)[nH]c3c2)c1 [Example 270] | 13.9 | 85.3
26 | CC(C)(C)OC(=O)N1CCn2ncc(-c3cccc(Cl)c3-c3ccc4c(=O)n(-c5cncc6ccccc56)c(=O)[nH]c4c3)c2C1 [Example 271] | 155 | 208
27 | Cn1ncc(-c2cccc(Cl)c2-c2ccc3c(=O)n(-c4cncc5ccccc45)c(=O)[nH]c3c2)c1C(F)(F)F [Example 272] | 212 | 39.6
28 | COc1nn(C)cc1-c1cccc(Cl)c1-c1ccc2c(=O)n(-c3cncc4ccccc34)c(=O)[nH]c2c1 [Example 273] | 14.9 | 6.41

Row | SMILES | IC50 [1] [nM] | EC50 (SARS-CoV-2-NLuc) [nM]
29 | Cc1nn(C(C)(C)C)cc1-c1cccc(Cl)c1-c1ccc2c(=O)n(-c3cncc4ccccc34)c(=O)[nH]c2c1 [Example 274] | 83.5 | 95.7
30 | CCn1cc(-c2cccc(Cl)c2-c2ccc3c(=O)n(-c4cncc5ccccc45)c(=O)[nH]c3c2)c(C)n1 [Example 275] | 23.3 | 17.9
31 | N#Cc1cccc(-c2cccc(Cl)c2-c2ccc3c(=O)n(-c4cncc5ccccc45)c(=O)[nH]c3c2)n1 [Example 276] | 230 | 219
32 | N#Cc1cc(-c2cccc(Cl)c2-c2ccc3c(=O)n(-c4cncc5ccccc45)c(=O)[nH]c3c2)cnc1N1CCOCC1 [Example 277] | 124 | 57
33 | O=c1[nH]c2cc(-c3c(Cl)cccc3-c3cncc(N4CCOCC4)c3)ccc2c(=O)n1-c1cncc2ccccc12 [Example 279] | 5.27 | 7.65
34 | Cn1cc(-c2cccc(Cl)c2-c2cc3[nH]c(=O)n(-c4cncc5ccccc45)c(=O)c3s2)c(C(F)(F)F)n1 [Example 280, 6-(2-chloro-6-(1-methyl-3-(trifluoromethyl)-1H-pyrazol-4-yl)phenyl)-3-(isoquinolin-4-yl)thieno[3,2-d]pyrimidine-2,4(1H,3H)-dione] | 5.97 | 15.9
35 | CCn1cc(-c2cccc(Cl)c2-c2ccc3c(=O)n(-c4cncc5ccccc45)c(=O)[nH]c3c2)c(C(F)(F)F)n1 [Example 281] | 71.8 | 39.5
36 | CC(C)n1cc(-c2cccc(Cl)c2-c2ccc3c(=O)n(-c4cncc5ccccc45)c(=O)[nH]c3c2)c(C(F)(F)F)n1 [Example 282] | 148 | 72.4
37 | COc1ccc(-n2cc(-c3cccc(Cl)c3-c3ccc4c(=O)n(-c5cncc6ccccc56)c(=O)[nH]c4c3)c(C)n2)cc1 [Example 283] | 240 | 94.4
38 | CCS(=O)(=O)c1cccc(-c2cccc(Cl)c2-c2ccc3c(=O)n(-c4cncc5ccccc45)c(=O)[nH]c3c2)c1 [Example 284] | 25.8 | 35.6
39 | Cc1nn(CC(F)(F)F)cc1-c1cccc(Cl)c1-c1ccc2c(=O)n(-c3cncc4ccccc34)c(=O)[nH]c2c1 [Example 285] | 19.2 | 25.5
40 | O=c1[nH]c2cc(-c3cc(F)c(F)cc3Cl)sc2c(=O)n1-c1cncc2ccccc12 [Example 286] | 34.8 | 60.3
41 | Cc1cc(Cl)ncc1-c1cc2[nH]c(=O)n(-c3cncc4ccccc34)c(=O)c2s1 [Example 287] | 226 | > 922
42 | Cc1nc(Cl)ccc1-c1cc2[nH]c(=O)n(-c3cncc4ccccc34)c(=O)c2s1 [Example 288] | 227 | 1050
43 | Cc1ccc(-c2cc3[nH]c(=O)n(-c4cncc5ccccc45)c(=O)c3s2)c(Cl)n1 [Example 289] | 41.7 | 119
44 | Cc1ccnc(Cl)c1-c1cc2[nH]c(=O)n(-c3cncc4ccccc34)c(=O)c2s1 [Example 290] | 159 | 484
45 | O=c1[nH]c2cc(-c3c(Cl)cccc3-c3cn(CC(F)F)nn3)ccc2c(=O)n1-c1cncc2ccccc12 [Example 292] | 120 | 169
46 | O=c1[nH]c2cc(-c3c(Cl)cccc3-c3cn(CCO)nn3)ccc2c(=O)n1-c1cncc2ccccc12 [Example 293] | 67.8 | 748
47 | COc1cccc(-c2ccc3c(=O)n(-c4cncc5ccccc45)c(=O)[nH]c3c2)c1Cl [Example 295] | 7430 | 13500
48 | O=c1[nH]c2cc(-c3cc(O)ccc3Cl)ccc2c(=O)n1-c1cncc2ccccc12 [Example 296] | 384 | 1430
49 | CC(C)Oc1ccc(Cl)c(-c2ccc3c(=O)n(-c4cncc5ccccc45)c(=O)[nH]c3c2)c1 [Example 297] | 680 | 223
50 | N#Cc1cncc(-c2cccc(Cl)c2-c2ccc3c(=O)n(-c4cncc5ccccc45)c(=O)[nH]c3c2)c1 [Example 298] | 6.29 | 10.8
51 | COc1cc(-c2ccc3c(=O)n(-c4cncc5ccccc45)c(=O)[nH]c3c2)c(Cl)cc1F [Example 299] | 72.4 | 36.1
52 | CCOc1ccc(Cl)c(-c2ccc3c(=O)n(-c4cncc5ccccc45)c(=O)[nH]c3c2)c1 [Example 300] | 148 | 60.5
53 | COc1ccc(C)c(-c2ccc3c(=O)n(-c4cncc5ccccc45)c(=O)[nH]c3c2)c1 [Example 301] | 259 | 173
54 | O=c1[nH]c2cc(-c3c(Cl)cccc3OCc3cccnn3)ccc2c(=O)n1-c1cncc2ccccc12 [Example 302] | 30.3 | 108
55 | COCc1ccc(Cl)c(-c2ccc3c(=O)n(-c4cncc5ccccc45)c(=O)[nH]c3c2)c1 [Example 303] | 270 | 365

— patent publication US20240116946A1 (Gilead Sciences, Inc., priority 2022, published 2024)
